From US5256395A, “Affinity enhancement immunological reagents for in vivo detection and killing of specific target cells” (Immunotech Partners, priority 1986, dated 1993)
Side chains are listed from the residue outwards. Peptide text beside a SMILES is read from it. * marks the point of attachment. Dnp = O=[N+]([O-])c1ccc(*)c([N+](=O)[O-])c1; Ahx = NCCCCCC(=O)O

Tests used:
[1] = test system: anti-CD5-anti-DNP dual specificity conjugate (compound 1; F(ab')2 clone BL1a coupled to anti-DNP Fab' clone U7-27) on HPBALL cells (human T-cell line); assay: Binding of radioiodinated probe to target cells in the presence of excess dual specificity conjugate; settings: for Bound/free (%): compound 1 at 0.5 μg/ml present, 3 h; for Bound/free (%), SB = Specific Binding: excess conjugate present
Procedure: (§1) In an Eppendorf plastic tube are incubated 100 μl of a cell suspension at 3.10^7 cells/ml of a human T-cell line (HPBALL) or of a human B lymphoma line (Namalwa) in phosphate buffered saline supplemented with 0.1% bovine serum albumin, 0.02% azide and 50 mM deoxyglucose, 100 μl of a solution of dual specificity conjugate, anti-CD5 (compound 1) or anti-CALLA (compound 2), at 0.5 μg/ml in the same buffer and 150 μl of radioiodinated compound 6 or compound 7. After 3 h at 4° C. or 37° C. with agitation, 100 μl of the resulting cell suspension are transferred into triplicate 0.4 ml plastic tubes containing 200 μl of a 1.2:1 mixture of dibutyl-phthalate and ethyl-hexyl-phthalate. After 30 sec centrifugation at 10,000 g, 50 μl of the supernatant are collected and counted, and the bottom of the tube, containing the cell pellet, is cut and counted. Results are then expressed as bound/free percentages.
(§2) The experimental settings allow cross-controlled experiments, since HPBALL cells express the T-cell marker CD5, but not the tumor-associated antigen CALLA, whereas Namalwa cells express CALLA, but not CD5.

[2] = test system: anti-CD5-anti-DNP dual specificity conjugate (compound 1) with Namalwa cells (human B lymphoma line); assay: as above; settings: Namalwa cells (no CD5), compound 1 at 0.5 μg/ml present, 3 h
Procedure: as §1, §2

[3] = test system: anti-CALLA-anti-DNP dual specificity conjugate (compound 2; F(ab')2 clone ALB1 coupled to anti-DNP Fab' clone U7-27) with HPBALL cells (human T-cell line); assay: as above; settings: HPBALL cells (no CALLA), compound 2 at 0.5 μg/ml present, 3 h
Procedure: as §1, §2

[4] = test system: anti-CALLA-anti-DNP dual specificity conjugate (compound 2) on Namalwa cells (human B lymphoma line); assay: as above; settings: for Bound/free (%): compound 2 at 0.5 μg/ml present, 3 h; for Bound/free (%), SB = Specific Binding: excess conjugate present
Procedure: as §1, §2

[5] = test system: anti-CD5-anti-DNP dual specificity conjugate (compound 1) with Namalwa cells (human B lymphoma line); assay: Binding of radioiodinated probe to target cells after washing the excess dual specificity conjugate; settings: Namalwa cells (no CD5), compound 1 1 h then washed 3 times, tracer 2 h
Procedure: as §1
(§3) The experimental conditions are similar to that described above but the dual specificity conjugate is incubated first for 1 h, then the cells are washed 3 times and the tracer is added. The cells are then pelleted after another 2 h incubation. Results.

[6] = test system: anti-CALLA-anti-DNP dual specificity conjugate (compound 2) with HPBALL cells (human T-cell line); assay: as above; settings: HPBALL cells (no CALLA), compound 2 1 h then washed 3 times, tracer 2 h, 37° C.
Procedure: as §1, §3

[7] = test system: anti-CD5-anti-DNP dual specificity conjugate (compound 1) on HPBALL cells (human T-cell line); assay: as above; settings: 37° C.; for Bound/free (%): compound 1 1 h then washed 3 times, tracer 2 h; for Bound/free (%), SB = Specific Binding: excess conjugate washed
Procedure: as §1, §3

[8] = test system: anti-CALLA-anti-DNP dual specificity conjugate (compound 2) on Namalwa cells (human B lymphoma line); assay: as above; settings: for Bound/free (%): compound 2 1 h then washed 3 times, tracer 2 h; for Bound/free (%), SB = Specific Binding: excess conjugate washed
Procedure: as §1, §3

[9] = test system: anti-Lyb8.2-anti-DNP conjugate (compound 3) on BALB/c mouse spleen cells; assay: Binding of 111In-labeled probe to mouse spleen cells in the presence of conjugate; settings: 111In-labeled tracer, BALB/c spleen cells 10^7 cells/ml, 37° C., 2 h, compound 3 at 3.10^-9 M
Procedure: as §1
Compound 4, and the monomeric analogue, compound 5, (0.2 nmol) have been labeled with 0.2 mCi of ^111 In chloride by incubation at room temperature in 0.1M citrate buffer for 30 min. […] After incubation of freshly isolated BALB/c mouse spleen cells (10^7 cells/ml) at 37° C. for 2 h in the presence of anti-Lyb8.2-anti-DNPconjugate (compound 3) at 3.10^-9 M, binding of the labeled compounds 4 and 5 was monitored as described in example 4. […]

Row | Compound | Bound/free (%) ([1]; 4° C.) | Bound/free (%) ([1]; 37° C.) | Bound/free (%), SB = Specific Binding ([1]; 4° C.) [%] | Bound/free (%), SB = Specific Binding ([1]; 37° C.) [%] | Bound/free (%) ([2]; 4° C.) | Bound/free (%) ([2]; 37° C.) | Bound/free (%) ([3]; 4° C.) | Bound/free (%) ([3]; 37° C.) | Bound/free (%) ([4]; 4° C.) | Bound/free (%) ([4]; 37° C.) | Bound/free (%), SB = Specific Binding ([4]; 4° C.) [%] | Bound/free (%), SB = Specific Binding ([4]; 37° C.) [%] | Bound/free (%) ([5]; 4° C.) | Bound/free (%) ([5]; 37° C.) | Bound/free (%) [6] [%] | Bound/free (%) [7] [%] | Bound/free (%), SB = Specific Binding [7] [%] | Bound/free (%) ([8]; 4° C.) | Bound/free (%) ([8]; 37° C.) | Bound/free (%), SB = Specific Binding ([8]; 4° C.) [%] | also measured
1 | O=C(CCCCCNc1ccc([N+](=O)[O-])cc1[N+](=O)[O-])NCCCC[C@H](NC(=O)[C@H](Cc1ccc(O)cc1)NC(=O)CCCCCNc1ccc([N+](=O)[O-])cc1[N+](=O)[O-])C(=O)O [compound 6, N-α-(2,4-dinitrophenyl-aminocaproyl)-L-tyrosyl-N-ε-(2,4-dinitrophenyl-aminocaproyl)-L-lysine] ({Dnp-Ahx}-Tyr-Lys([Ahx-Dnp])-OH) | 72 | 67 | 56 | 52 | 2 | 4 | 16 | 15 | 23 | 21 | 21 | 17 | 15 | 4 | 9 | 45 | 36 | 145 | 11 | 130 | Bound/free (%), SB = Specific Binding ([8]; 37° C.): 7%
2 | O=C(O)CN(CCN(CC(=O)O)CC(=O)N[C@@H](CCCCNc1ccc([N+](=O)[O-])cc1[N+](=O)[O-])C(=O)O)CCN(CC(=O)O)CC(=O)N[C@@H](CCCCNc1ccc([N+](=O)[O-])cc1[N+](=O)[O-])C(=O)O [compound 4, bis-(N-ε-(2,4-dinitrophenyl)-L-Lysyl)diethylenetriamine-pentaacetic acid] | – | – | – | – | – | – | – | – | – | – | – | – | – | – | – | – | – | – | – | – | bound/free [9]: 26%
3 | O=C(O)CN(CCN(CC(=O)O)CC(=O)O)CCN(CC(=O)O)CC(=O)N[C@@H](CCCCNc1ccc([N+](=O)[O-])cc1[N+](=O)[O-])C(=O)O [compound 5, (N-ε-(2,4-dinitrophenyl)-L-Lysyl)-diethylenetriamine-pentaacetic acid] | – | – | – | – | – | – | – | – | – | – | – | – | – | – | – | – | – | – | – | – | bound/free [9]: 6%
4 | O=C(O)CNC(=O)[C@H](Cc1ccc(O)cc1)NC(=O)CCCCCNc1ccc([N+](=O)[O-])cc1[N+](=O)[O-] [compound 7, N-α-(2,4-dinitrophenyl-aminocaproyl)-L-tyrosyl-gylicine] | 38 | 12 | 35 | 9 | 2 | 1 | 3 | 3 | 6 | 5 | 4 | 4 | 8 | 2 | 3 | 11 | 7 | 50 | 4 | 42 | Bound/free (%), SB = Specific Binding ([8]; 37° C.): 2%
